Results as given in PMC4230215, “Lipolytic Potential of Aspergillus japonicus LAB01: Production, Partial Purification, and Characterisation of an Extracellular Lipase” (BioMed Research International, 2014).

System: T1, extracellular lipase from A. japonicus LAB01
T1 construct: about 25 kDa on SDS-PAGE
Test: spectrophotometric p-nitrophenol release at […] nm, Michaelis-Menten hyperbola regression
Format: biochemical, Aspergillus japonicus
Conditions: Tris-HCl pH 8.0, 37 °C, Triton X-100 and gum arabic emulsion, 2-propanol; 0-1.4 mM substrate; partially purified enzyme; read-out: apparent KM

Km: 130 µM
Compound: CCCCCCCCCCCCCCCC(=O)Oc1ccc([N+](=O)[O-])cc1 [p-NPP, p-nitrophenyl palmitate]
